# Read-outs that look alike come from different tables or passages of the source.
# Target: T1, HIF-2α HIS TAG-PASB Domain (Homo sapiens, UniProt Q99814)
# T1 construct: 100 nM HIF-2α HIS TAG-PASB Domain
# Experiment: HIF-2α Scintillation Proximity Assay (SPA)
# Assay type: binding
# Protocol: The total assay volume was about 100 μL in the following configuration: 2 μL compound in 100% DMSO, 88 μL buffer with protein and probe and 10 μL of SPA beads. […] The percent inhibition was determined and IC50 values were calculated using the Dotmatics system based on the following equation: % inhibition=[(high control−sample)/(high control−low control)]×100.
# [1] = read-out: Scintillation Proximity Assay IC50
# [2] = Scintillation Proximity Assay IC50 (nM)
# T1 sequence (Q99814 240-350 limits assumed): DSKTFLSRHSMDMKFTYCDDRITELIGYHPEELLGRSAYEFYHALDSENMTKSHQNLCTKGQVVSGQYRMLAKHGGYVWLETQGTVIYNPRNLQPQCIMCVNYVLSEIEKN
Structure (SMILES),IC50 [1],IC50 [2]
"O=S(=O)(c1ccc(NC2CCOCC2)c2c1[C@H](O)CC2)C(F)F [Compound 494, (1R)-7-(difluoromethylsulfonyl)-4-(tetrahydropyran-4-ylamino)indan-1-ol]",> 1000 nM,–
N#Cc1c(Oc2cc(F)cc(Cl)c2)ccc2c1[C@H](O)CS2(=O)=O [Compound 407],> 1000 nM,–
CS(=O)(=O)c1ccc(Nc2cncc(Cl)c2)c2c1C(O)C(F)(F)C2 (stereo not shown) [Compound 500],> 1000 nM,–
NC(=O)c1cc(S(=O)(=O)C(F)(F)F)ccc1Oc1cc(F)cc(Cl)c1 [Compound 125],–,> 1000 nM
CO[C@H]1c2c(S(C)(=O)=O)ccc(Oc3cc(F)cc(C#N)c3)c2CC1(F)F [Compound 210],> 1000 nM,–
Fc1cc(Cl)cc(Oc2ccc(C(F)(F)F)c(Cl)c2Br)c1 [Compound 97],> 1000 nM,–
CC1(C)C=C(c2ccc(S(=O)(=O)C(F)(F)F)c3c2CC(F)(F)[C@H]3O)C(O)CC1 (stereo partly shown) [Compound 543],> 1000 nM,–
CC1(COc2ccc(S(=O)(=O)C(F)(F)F)c3c2CCC3O)COC1 (stereo not shown) [Compound 621],> 1000 nM,–
C=C1CC(O)c2c(S(C)(=O)=O)ccc(Oc3cc(F)cc(Cl)c3)c21 (stereo not shown) [Compound 280],> 1000 nM,–
CC1(C)CC[C@H](O)[C@@H](c2ccc(S(=O)(=O)C(F)(F)F)c3c2CC(F)(F)[C@H]3O)C1 [Compound 544],> 1000 nM,–
O=S(=O)(c1ccc(Oc2c(F)cccc2F)c(Br)c1)C(F)(F)F [Compound 176],> 1000 nM,–
COc1ccc(-c2cn[nH]c2)c2c1CC(F)(F)C2O (stereo not shown) [Compound 680],> 1000 nM,–
CS(=O)(=NC#N)c1ccc(Oc2cc(F)cc(F)c2)c2c1C(O)CC2 (stereo not shown) [Compound 189],> 1000 nM,–
CS(=O)(=O)c1ccc(Oc2cc(F)cc(C#N)c2)c2c1[C@H](O)CC2(F)F [Compound 288],> 1000 nM,–
"O=S(=O)(c1ccc(N2CCOCC2)c2c1[C@H](O)C(F)(F)C2)C(F)(F)F [Compound 490, (S)-2,2-difluoro-4-morpholino-7-((trifluoromethyl)sulfonyl)-2,3-dihydro-1H-inden-1-ol]",> 1000 nM,–
O=S(=O)(c1ccc(OC2CCNCC2)c2c1C(O)CC2)C(F)(F)F (stereo not shown) [Compound 606],> 1000 nM,–
NCC1(O)CCc2c(OCC(F)F)ccc(C(F)(F)F)c21 (stereo not shown) [Compound 705],> 1000 nM,–
C=CS(=O)(=O)c1ccc(Oc2cc(F)cc(Cl)c2)c(Br)c1 [Compound 130],> 1000 nM,–
CS(=O)(=O)c1ccc(Oc2cc(F)cc(C#N)c2)c2c1[C@H](O)C(F)(F)[C@H]2O [Compound 311],> 1000 nM,–
O=S(=O)(c1ccc(OC2CCNC2)c2c1C(O)C(F)(F)C2)C(F)(F)F (stereo not shown) [Compound 643],> 1000 nM,–
O=C1CC[C@H](Oc2ccc(S(=O)(=O)C(F)(F)F)c3c2CC(F)(F)[C@H]3O)CN1 [Compound 719],> 1000 nM,–
O=S(=O)(c1ccc(Cc2ccccc2)c2c1C(O)CC2)C(F)(F)F (stereo not shown) [Compound 510],> 1000 nM,–
CS(=O)(=O)c1ccc(C(F)(F)CO)c2c1C(O)C(F)(F)C2 (stereo not shown) [Compound 555],> 1000 nM,–
O=S(=O)(c1ccc(OCCO)c2c1C(O)CC2)C(F)(F)F (stereo not shown) [Compound 613],> 1000 nM,–
N#Cc1cncc(Oc2ccc(S(=O)(=O)CF)c3c2[C@H](F)C(F)(F)[C@H]3O)c1 [Compound 345],> 1000 nM,–
CS(=O)(=O)c1ccc(Nc2cc(F)cc(C#N)c2)c2c1C(O)C(F)(F)C2 (stereo not shown) [Compound 502],> 1000 nM,–
Nc1ncccc1-c1ccc(S(=O)(=O)C(F)(F)F)c2c1CC(F)(F)[C@H]2O [Compound 539],> 1000 nM,–

Structure (SMILES),IC50 [1],IC50 [2]
O=S(=O)(c1ccc(Nc2cncc(Cl)c2)c2c1C(O)CC2)C(F)(F)F (stereo not shown) [Compound 503],> 1000 nM,–
Cn1nccc1-c1ccc(S(=O)(=O)C(F)(F)F)c2c1CC(F)(F)[C@H]2O [Compound 559],> 1000 nM,–
O=S(=O)(c1ccc(Oc2cc(F)cc(Cl)c2)c(CO)c1)C(F)(F)F [Compound 122],–,> 1000 nM
CS(=O)(=O)c1ccc(Oc2cncc(Cl)c2)c2c1[C@H](O)C(F)(F)[C@H]2F [Compound 332],> 1000 nM,–
"O=S(=O)(c1ccc(CCCO)c2c1C(O)CC2)C(F)(F)F (stereo not shown) [Compound 522, 4-(3-hydroxypropyl)-7-((trifluoromethyl)sulfonyl)-2,3-dihydro-1H-inden-1-ol]",250 to 1000 nM,–
CC1(O)c2c(ccc(Oc3cc(F)cc(C#N)c3)c2C(F)F)S(=O)(=O)C1(F)F (stereo not shown) [Compound 442],50 to 249 nM,–
N#Cc1c(S(=O)(=O)C(F)F)ccc(Oc2cc(F)cc(Cl)c2)c1Br [Compound 76],250 to 1000 nM,–
CC(=O)c1c(S(=O)(=O)C(F)(F)F)ccc(Oc2cc(F)cc(C#N)c2)c1C#N [Compound 79],> 1000 nM,–
O=S(=O)(c1ccc(C2CC2)c2c1C(O)CC2)C(F)(F)F (stereo not shown) [Compound 512],> 1000 nM,–
CN(Cc1cccs1)c1ccc(S(=O)(=O)C(F)F)c2c1CC(F)(F)[C@H]2O [Compound 530],> 1000 nM,–
O=S1(=O)CCc2c1ccc(Oc1cc(F)cc(Cl)c1)c2Br [Compound 350],> 1000 nM,–
CN1CCCC(Oc2ccc(S(=O)(=O)C(F)(F)F)c3c2CC(F)(F)C3O)C1 (stereo not shown) [Compound 634],> 1000 nM,–
O=S(=O)(c1ccc(Oc2ccc(F)cc2F)c(Br)c1)C(F)(F)F [Compound 175],> 1000 nM,–
O=C1c2c(C(F)(F)F)ccc(OCC(F)F)c2CC1F (stereo not shown) [Compound 694],> 1000 nM,–
O=S(=O)(c1ccc(CO)c2c1[C@H](O)C(F)(F)C2)C(F)(F)F [Compound 537],> 1000 nM,–
O=C1c2c(ccc(Oc3cc(F)cc(Cl)c3)c2Br)S(=O)(=O)C1(F)F [Compound 354],> 1000 nM,–
N#Cc1c(Oc2cc(F)cc(Cl)c2)ccc(S(=O)(=O)C(F)(F)F)c1Cl [Compound 28],> 1000 nM,–
CC1(C)C=C(c2ccc(S(=O)(=O)C(F)(F)F)c3c2CC(F)(F)[C@H]3O)C(=O)CC1 [Compound 541],> 1000 nM,–
CS(=O)(=O)c1ccc(Oc2cc(F)cc(C#N)c2)c2c1C(O)C(F)(F)CC2 (stereo not shown) [Compound 181],–,> 1000 nM
N#Cc1cc(F)cc(Oc2ccc3c(c2C(F)F)C(N)C(F)(F)S3(=O)=O)c1 (stereo not shown) [Compound 387],50 to 249 nM,–
CCOCC1(COc2ccc(S(=O)(=O)C(F)(F)F)c3c2CC(F)(F)[C@H]3O)COC1 [Compound 708],> 1000 nM,–
COc1ccc(S(=O)(=O)C(F)(F)F)c2c1CC(F)(F)C2O (stereo not shown) [Compound 590],> 1000 nM,–
O=S1(=O)C[C@H](O)c2c1ccc(Oc1cc(F)cc(F)c1)c2Br [Compound 413],> 1000 nM,–
O=S(=O)(c1ccc(CC2CCCCC2)c2c1C(O)CC2)C(F)(F)F (stereo not shown) [Compound 508],> 1000 nM,–
Cc1cc(Oc2ccc(S(=O)(=O)C(F)F)c3c2CC(F)(F)C3=O)ccc1F [Compound 197],250 to 1000 nM,–
N#Cc1cc(F)cc(Oc2ccc(S(=N)(=O)C(F)(F)F)c3c2CCC3O)c1 (stereo not shown) [Compound 259],> 1000 nM,–
CS(=O)(=O)c1ccc(C(F)(F)CO)c2c1[C@H](O)C(F)(F)C2 [Compound 556],> 1000 nM,–

Structure (SMILES),IC50 [1],IC50 [2]
O=S(=O)(c1ccc(Oc2ccc(Cl)c(Cl)c2)c(Br)c1)C(F)(F)F [Compound 169],> 1000 nM,–
N#Cc1cncc(Oc2ccc3c(c2Br)[C@@H](O)CS3(=O)=O)c1 [Compound 420],> 1000 nM,–
O=S(=O)(c1ccc(Oc2cccc(C(F)(F)F)c2)c(Br)c1CO)C(F)F [Compound 89],> 1000 nM,–
Cc1c([S+]([O-])C(F)F)ccc(Oc2cc(F)cc(Cl)c2)c1C#N (stereo not shown) [Compound 37],> 1000 nM,–
N#Cc1ccc(Oc2cc(F)cc(F)c2)c2c1[C@H](O)CC2 [Compound 66],> 1000 nM,–
COCCOc1ccc(S(=O)(=O)C(F)(F)F)c2c1CCC2O (stereo not shown) [Compound 599],> 1000 nM,–
Cc1ccc(Cl)cc1Oc1ccc(S(=O)(=O)C(F)(F)F)cc1Br [Compound 174],> 1000 nM,–
O=S(=O)(c1ccc(-c2ccn[nH]2)c2c1[C@H](O)C(F)(F)C2)C(F)(F)F [Compound 561],> 1000 nM,–
N#Cc1cc(F)cc(Oc2ccc3c(c2C(F)F)C(N)C(F)(F)S3(=O)=O)c1 (stereo not shown) [Compound 372],< 50 nM,–
CC1(C)C[C@@H](O)C[C@H](c2ccc(S(=O)(=O)C(F)(F)F)c3c2CC(F)(F)[C@H]3O)C1 [Compound 552],> 1000 nM,–
CS(=O)(=O)c1ccc(Oc2cc(F)cc(C#N)c2)c2c1[C@H](N)C(F)(F)[C@@H]2F [Compound 346],250 to 1000 nM,–
O=S(=O)(c1ccc(Oc2cc(Cl)ccc2F)c(Br)c1)C(F)(F)F [Compound 170],> 1000 nM,–
OC1c2c(I)cc(I)c(OCC(F)F)c2CC1(F)F (stereo not shown) [Compound 666],> 1000 nM,–
O=S(=O)(c1ccc(OC2CCOC2)c2c1C(O)CC2)C(F)(F)F (stereo not shown) [Compound 596],> 1000 nM,–
O=S(=O)(c1ccc(OC2CCOCC2)c2c1C(O)CC2)C(F)(F)F (stereo not shown) [Compound 745],> 1000 nM,–
C/C=C/c1c(S(=O)(=O)C(F)F)ccc(Oc2cc(F)cc(C#N)c2)c1C#N [Compound 178],250 to 1000 nM,–
N#Cc1cc(F)cc(Oc2ccc(S(N)(=O)=O)c3c2[C@@H](O)C(F)(F)[C@H]3O)c1 [Compound 337],> 1000 nM,–
O=S(=O)(CF)c1ccc(Oc2cc(F)cc(Cl)c2)c(Br)c1 [Compound 137],250 to 1000 nM,–
CS(=O)(=O)c1ccc(Oc2cc(F)cc(Cl)c2)c(Br)c1 [Compound 138],–,> 1000 nM
CS(=O)(=O)CCCOc1ccc(S(=O)(=O)C(F)(F)F)c2c1CC(F)(F)C2O (stereo not shown) [Compound 631],> 1000 nM,–
CNC(=O)COc1ccc(S(=O)(=O)C(F)(F)F)c2c1CC(F)(F)C2O (stereo not shown) [Compound 638],> 1000 nM,–
N#Cc1cncc(Oc2ccc(S(=O)(=O)CF)c3c2[C@@H](F)C(F)(F)[C@H]3O)c1 [Compound 344],< 50 nM,–
O=S(=O)(c1ccc(OC2CCCNC2)c2c1[C@H](O)C(F)(F)C2)C(F)(F)F (stereo partly shown) [Compound 797],> 1000 nM,–
COC(=O)c1c([S+]([O-])C(F)F)ccc(Oc2cc(F)cc(Cl)c2)c1Br (stereo not shown) [Compound 82],> 1000 nM,–
CC1(C)CC[C@H](O)[C@H](c2ccc(S(=O)(=O)C(F)(F)F)c3c2CC(F)(F)[C@H]3O)C1 [Compound 548],> 1000 nM,–
